Test results taken from publication PMC9674596, “Origin of acetylcholine antagonism in ELIC, a bacterial pentameric ligand-gated ion channel” (Communications Biology, 2022).
Entries after “also recorded” stand apart in the source; their conditions may differ.

Experiments:
[1] = target: T1, ELIC L240A (L9′A) + A75D/F133W (Dickeya chrysanthemi, UniProt P0C7B7, A75D/F133W/L239A); assay: Two-electrode voltage clamp, L9′A + A75D/F133W triple mutant ELIC expressed in Xenopus laevis oocytes; type: cell-based, Erwinia chrysanthemi
T1 construct: expressed in transfected cells; host or cells: Xenopus laevis oocytes injected with cRNA
Description: Stage V-VI Xenopus laevis oocytes were isolated[72] and deflocculated enzymatically in ND96 buffer without Ca^2+ (96 mM NaCl, 2 mM KCl, 1 mM MgCl2, 2 mM pyruvate, 5 mM HEPES, pH 7.4), but supplemented with 1 mg/mL collagenase B and 1 mg/mL trypsin inhibitor, for 2 h at room temperature under constant stirring. The deflocculation buffer was then gradually removed by washing the oocytes in ND96 buffer (96 mM NaCl, 2 mM KCl, 1 mM MgCl2, 1 mM CaCl2, 2 mM pyruvate, 5 mM HEPES, pH 7.4) for several iterations. The oocytes were then allowed to stir for an additional hour at room temperature under constant stirring with the buffer being periodically replaced until clear. To obtain optimal receptor expression, individually selected and healthy oocytes were injected with 0.2 ng cRNA for wild-type ELIC and 5 ng cRNA for mutants. Subsequently, oocytes were incubated for one day at 16 °C in ND96^+ buffer (96 mM NaCl, 2 mM KCl, 1 mM MgCl2, 1 mM CaCl2, 2 mM pyruvate, and 5 mM HEPES at pH 7.6). After expression, injected oocytes were placed in a RC-1Z oocyte chamber (Harvard Apparatus; Hamden, CT) containing buffer (pH 7.4) composed of 150 mM NaCl, 0.5 mM BaCl2, 10 mM HEPES, and 1 mM dithiothreitol or 1 µM atropine if cysteamine, or ACh, was used in the experiment, respectively. The presence of the reducing agent, dithiothreitol, ensures that the sulfhydryl group of cysteamine remains reduced.
Once in the oocyte chamber, whole-cell currents were recorded using a two-electrode voltage-clamp apparatus (OC-725C oocyte clamp; Harvard Apparatus), with a buffer flow rate of 5–10 mL min^−1. Currents in response to various additions of cysteamine and/or ACh, were measured with the transmembrane voltage clamped at −60 mV. Dose response curves for each wild-type and mutant ELIC were acquired from at least five oocytes in two different batches.
For identifying the half maximal effective concentration (EC50) and apparent Hill coefficient (nH) of cysteamine, dose response curves were created by taking the magnitude of each cysteamine-activated peak current (I) and normalizing this value to the maximal peak current in the presence of excess agonist (Imax). The log (base 10) cysteamine concentration in molar was then plotted on the x-axis against the fractional response (I/Imax) on the y-axis. The data was fitted using nonlinear regression with a variable slope sigmoidal dose response (Eq. 1, below) in GraphPad Prism (v.8.0.0).1 y=1/1+10^nH^LogEC50−X
Individual EC50 and Hill coefficients were averaged for each oocyte to derive a mean ± standard deviation. For identifying a half maximal inhibitory concentration (IC50) and Hill coefficient of ACh, a concentration of cysteamine corresponding to its EC50 was used in the presence of increasing concentrations of ACh. […]

ELIC A75D = target: T2, ELIC A75D (Dickeya chrysanthemi, UniProt P0C7B7, A75D/INS163G); assay: Two-electrode voltage clamp, A75D mutant ELIC expressed in Xenopus laevis oocytes; type: cell-based, Erwinia chrysanthemi; details: A75D
T2 construct: expressed in transfected cells; host or cells: Xenopus laevis oocytes injected with cRNA from ELIC-pTLN

NCCS [cysteamine]
Current on application of ligand alone ([1]; L9′A + A75D/F133W, 30 s applications of ACh 0.5 to 50 mM, then 5 mM cysteamine): robust peak current; also recorded: robust activation
Activation Hill coefficient ([1]; L240A (L9′A) + A75D/F133W, cysteamine as agonist): 3.7 ± 0.3
EC50 ([1]; L240A (L9′A) + A75D/F133W, cysteamine as agonist, read-out: Activation EC50): 4300 ± 600 µM
Cysteamine concentration corresponding to EC10 (ELIC A75D): 600 µM
Cysteamine concentration corresponding to EC20 (ELIC A75D): 900 µM
Increase in EC50 for cysteamine relative to wild-type (ELIC A75D): 3 fold
Activation Hill coefficient (ELIC A75D; cysteamine as agonist): 2.3 ± 0.5
EC50 (ELIC A75D; cysteamine as agonist, read-out: Activation EC50): 1600 ± 400 µM
Peak current on application of ligand alone (ELIC A75D; ACh 0.5 mM to 50 mM, followed by 5 mM cysteamine): robust peak current
EC90 (ELIC A75D; read-out: Cysteamine concentration corresponding to EC90): 4200 µM
